In patent US20040220297A1, “Self curing cements” (priority 1999, published 2004):

Experiment: Cytotoxicity tests
Format: cell-based

CCCCCCCC/C=C\CCCCCCCC(=O)OCc1ccc(N(C)C)cc1 [DMAO, 4-N,N-dimethylaminobenzyloleate]
cytotoxicity: non-toxic
